According to patent publication US4673747A, “Aminoalkylphenoxy derivatives” (Ikeda Mohando Co., Ltd., priority 1984, dated 1987):
Read-outs that look alike come from different tables or passages of the source. One block for each compound: values may come before it.

Columns and labels:
[1] = tested on: Gastric acid secretion induced by histamine; assay: Inhibition effect on gastric acid secretion induced by histamine in pylorus ligated rat (subcutaneous); type: in vivo, rat (male Wistar); details: read-out: Secretion of Gastric Acid in Rat, Inhibition Rate (%)
Protocol: A male Wistar rat having a body weight of about 160 g and which had not fed for 24 hours was anesthetized by an intraperitonea dose of 1.2 g/kg of uretane. After ligating of pylorus and esophagus, the gaster anterior was incised and fitted with a double polyethylene cannula. The wall of the stomach was rinsed with 5 ml of saline at 30 minute intervals, and the quantities of gastric acid contained in each rinsing solution were measured by titration.
The basal acid secretion was initially measured three times, and then 0.2 mg/kg or 0.5 mg/kg of each of the compounds of this invention was administered subcutaneously and 3 mg/kg of histamine was administered subcutaneously after the lapse of an additional 30 minutes.
The quantity of gastric acid secreated after the operation was measured continuously for 3 hours. Within that measurement interval, three time points at which the increase in acid secretion reached a maximum level were selected, and the average quantity of gastric acid secreted at those time points was taken as the increase in acid secretion, which was compared with the increase in acid secretion of the control group to calculate the percent inhibition for secretion of gastric acid. [formula] (The result was shown as the average value of five runs.)

[2] = Acute toxicity test on mice dosed orally; parameters: species or system mouse (male ddy); details: mouse, in vivo, po, P.O., 14 days observation, read-out: Median lethal dose (LD50)
Protocol: Male ddy mice each having a body weight of about 22 g and which had not eaten for 8 hours were orally dosed with the test samples, and the general symptoms and fatalities were observed from the time immediately following the administration to 14 days after the administration.
The median lethal dose (LD50) was calculated in accordance with the Litchfield and Wilcoxon Method.

[3] = tested on: Gastric acid secretion induced by histamine; assay: Inhibitory effect of intraduodenally administered compounds on gastric acid secretion induced by histamine in rat; type: in vivo, rat (male Wistar); details: for ED50: 0.5 h, read-out: Median effective dose (ED50), Gastric Acid Secretion; for Efficacy Ratio relative to Cimetidine (Cimetidine = 1): from ED50; for ED50 value: times as effective as Cimetidine (activity ratio): text discussing Table 2
Histamine H2-Receptor = target: T1, Histamine H2-Receptor (Cavia porcellus, UniProt P47747); parameters: species or system guinea pig (male Hartley); details: isolated guinea pig atrium; negative logarithm of molar concentration; heart beats, histamine dose-response; read-out: Antagonistic Action against Histamine H2-Receptor (pA2) Determined by Using Atrium isolated from Guinea Pig (converted)
T1 construct: from tissue; host or cells: isolated atrium of male Hartley guinea pig
T1 sequence (P47747 whole entry): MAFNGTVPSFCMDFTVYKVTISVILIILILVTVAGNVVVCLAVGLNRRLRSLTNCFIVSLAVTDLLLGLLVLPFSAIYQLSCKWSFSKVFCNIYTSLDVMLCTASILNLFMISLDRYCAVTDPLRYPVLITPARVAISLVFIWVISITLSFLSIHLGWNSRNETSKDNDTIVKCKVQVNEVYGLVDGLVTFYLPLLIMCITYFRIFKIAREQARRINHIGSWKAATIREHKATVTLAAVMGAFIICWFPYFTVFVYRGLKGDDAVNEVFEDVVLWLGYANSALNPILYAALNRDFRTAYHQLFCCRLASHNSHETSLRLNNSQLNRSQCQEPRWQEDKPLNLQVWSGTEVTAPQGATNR
Protocol: A male Hartley guinea pig having a body weight of about 400 g was killed by cervical dislocation, and the artrium thereof was isolated and was suspended in an organ bath containing 50 ml of a modified Ringer solution and subjected to a tension of 1 g. The number of heart beats under such condition was recorded using a polygraph.
Initially, from 1×10^-7 mol to 3×10^-4 mol of histamine was allowed to act accumulatively to depict the curve of the dosage-reaction relationship. Likewise, the curve of the dosage of histamine-reaction relationship was depicted in the presence of 5×10^-7 mol to 1×10^-6 mol of the test sample which was injected 3 minutes before. The negative logarithm (pA2) of the molar concentration of the test sample required for moving the curve obtained by single administration of histamine parallel to the right side by a two-times concentration was calculated.

[4] = 0.5 mg/kg SC, histamine 3 mg/kg SC, average of five runs, * p<0.05, ** p<0.01 vs control group
[5] = intraduodenal, 30 minutes before SC histamine, rat

SMILES: CN/C(=N/CCSCc1nc[nH]c1C)NC#N [Cimetidine, reference compound]
inhibition in vivo at 0.5 mg/kg ([1]; sc): 41% | LD50 at 336 h [2]: 3300 mg/kg | ED50 ([3]; Rattus norvegicus): 7.2 mg/kg

SMILES: Nc1c(NC/C=C\COc2cccc(CN3CCCCC3)c2)c(=O)c1=O [Ex. 2, 1-amino-2-[4-<3-(1-piperidinomethyl)phenoxy>-cis-2-butenylamino]-1-cyclobuten-3,4-dione]
Kb (Histamine H2-Receptor): 63.1 nM | inhibition in vivo at 0.5 mg/kg [1, 4]: 98% | LD50 at 336 h [2]: > 1500 mg/kg | ED50 [3, 5]: 0.046 mg/kg | Efficacy Ratio relative to Cimetidine (Cimetidine = 1) ([3]; intraduodenal, rat): 156.5 | ED50 value: times as effective as Cimetidine (activity ratio) ([3]; intraduodenal, rat): about 157 times

SMILES: CNc1c(NC/C=C\COc2cccc(CN3CCCCC3)c2)c(=O)c1=O [Ex. 3, 1-methylamino-2-[4-<3-(1-piperidinomethyl)phenoxy>-cis-2-butenylamino]-cyclobuten-3,4-dione]
Kb (Histamine H2-Receptor): 309 nM | inhibition in vivo at 0.5 mg/kg [1, 4]: 79% | LD50 at 336 h [2]: > 1500 mg/kg | ED50 [3, 5]: 0.036 mg/kg | Efficacy Ratio relative to Cimetidine (Cimetidine = 1) ([3]; intraduodenal, rat): 200.0 | ED50 value: times as effective as Cimetidine (activity ratio) ([3]; intraduodenal, rat): ~200 times

SMILES: Nc1n[nH]c(=O)nc1NC/C=C\COc1cccc(CN2CCCCC2)c1 [Ex. 9, 6-amino-5-[4-<3-(1-piperidinomethyl)phenoxy>-cis-2-butenylamino]-1,2,4-triazin-3-one]
Kb (Histamine H2-Receptor): 186 nM | inhibition in vivo at 0.5 mg/kg [1, 4]: 96% | LD50 at 336 h [2]: 1200 mg/kg

SMILES: CNc1n[nH]c(=O)nc1NC/C=C\COc1cccc(CN2CCCCC2)c1 [Ex. 10, 6-methylamino-5-[4-<3-(1-piperidinomethyl)phenoxy>-cis-2-butenylamino]-1,2,4-triazin-3-one]
Kb (Histamine H2-Receptor): 219 nM | inhibition in vivo at 0.5 mg/kg [1, 4]: 103% | LD50 at 336 h [2]: > 1500 mg/kg | ED50 [3, 5]: 8 mg/kg | Efficacy Ratio relative to Cimetidine (Cimetidine = 1) ([3]; intraduodenal, rat): 0.9

SMILES: Nc1cc(NC/C=C\COc2cccc(CN3CCCCC3)c2)nc(=O)[nH]1 [Ex. 13, 4-amino-6-[4-<3-(1-piperidinomethyl)phenoxy>-cis-2-butenylamino]-(1H)-pyrimidin-2-one]
Kb (Histamine H2-Receptor): 83.2 nM | inhibition in vivo at 0.5 mg/kg [1, 4]: 91% | LD50 at 336 h [2]: > 1500 mg/kg | ED50 [3, 5]: 0.52 mg/kg | Efficacy Ratio relative to Cimetidine (Cimetidine = 1) ([3]; intraduodenal, rat): 13.8

SMILES: CNc1n[s+]([O-])nc1NC/C=C\COc1cccc(CN2CCCCC2)c1 (stereo not drawn) [Ex. 16, 3-methylamino-4-[4-<3-(1-piperidinomethyl)phenoxy>-cis-2-butenylamino]-1,2,5-thiadiazole-1-oxide]
Kb (Histamine H2-Receptor): 2400 nM | inhibition in vivo at 0.5 mg/kg [1, 4]: 98% | LD50 at 336 h [2]: > 1500 mg/kg | ED50 [3, 5]: 0.04 mg/kg | Efficacy Ratio relative to Cimetidine (Cimetidine = 1) ([3]; intraduodenal, rat): 180.0 | ED50 value: times as effective as Cimetidine (activity ratio) ([3]; intraduodenal, rat): ~180 times

Kb (Histamine H2-Receptor): 589 nM
SMILES: O=c1c(NC/C=C\COc2cccc(CN3CCCCC3)c2)c(NCc2ccncc2)c1=O [Ex. 38]
inhibition in vivo at 0.2 mg/kg ([1]; 0.2 mg/kg SC, histamine 3 mg/kg SC, average of five runs, * p<0.05, ** p<0.01 vs control group): 98% | ED50 [3, 5]: 0.04 mg/kg | Efficacy Ratio relative to Cimetidine (Cimetidine = 1) ([3]; intraduodenal, rat): 180.0
